Source: article PMC11002876, “KcsA-Kv1.x chimeras with complete ligand-binding sites provide improved predictivity for screening selective Kv1.x blockers” (The Journal of Biological Chemistry, 2024)
Where a SMILES comes first, the peptide text is derived from it.

biological target: T1, KcsA-Kv1.1 T-only chimera (Streptomyces lividans, UniProt P0A334, R52A/G53E/A54E/P55A/G56E/A57S/Q58H/L59F/I60S/T61S/Y62I/R64D); test: Phage ELISA-binding assay, KcsA-Kv1.1 T-only; parameters: species or system human Kv1.1 turret in Streptomyces lividans KcsA; conditions: toxin displayed on M13 phage; Fig. 8C
T1 sequence (P0A334 1-160 R52A/G53E/A54E/P55A/G56E/A57S/Q58H/L59F/I60S/T61S/Y62I/R64D): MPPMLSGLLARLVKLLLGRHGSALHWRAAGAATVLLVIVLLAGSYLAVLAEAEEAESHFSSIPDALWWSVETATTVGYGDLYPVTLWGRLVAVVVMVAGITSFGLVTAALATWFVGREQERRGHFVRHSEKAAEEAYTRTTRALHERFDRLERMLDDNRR
Procedure: Phage display test solutions were prepared according to routine phage display protocols ([62]). Phosphorylated and annealed oligonucleotides encoding the peptide construct were ligated into linearized pAS62 phagemid vector (https://patents.google.com/patent/WO2022144560A1/en) at a vector/insert ratio of 1:3. The final phagemid construct harbored a signal sequence followed by the peptide of interest, a linker sequence ([…]), and the C-terminal part of the P3 coat protein (amino acids: 216-424 of NP_510891.1). Chemically competent XL1-Blue E. coli cells (2022249, Agilent) were transformed with the ligation product and then streaked onto ampicillin (100 μg/ml) containing LB/Amp plates and incubated for 16 h at 37 °C. A few clones were sequenced, and a single colony with confirmed target sequence was inoculated into 3 ml 2 YT medium supplemented with 100 μg/ml ampicillin and incubated at 37 °C until the culture reached midlog phase. The culture was infected with M13KO7 helper phage (N0315S, New England Biolabs) (phage/cell ratio 10:1) and was incubated for 30 min at 37 °C. The 3 ml culture was transferred into 200 ml 2YT medium, supplemented with 100 μg/ml ampicillin and 25 μg/ml kanamycin, and incubated overnight at 37 °C. The overnight cell culture (200 ml) was pelleted by centrifugation at 8000g for 10 min in 400 ml centrifuge tubes at 4 °C. […] The particle concentrations of phage solutions were determined using a NanoDrop One C (Thermo Fisher Scientific) spectrophotometer. The phage particle concentration was assessed according to the formula: (A268–A320) × 5 × 10^12 particles/ml ([62]). […]
Phage stock solutions were diluted to working concentration with phage resuspension buffer supplemented with 2 mM DDM. […] Following blocking, the wells were washed 4× with washing buffer (300 μl TBS-Tween, 0.1% v/v) using a Wellwash Versa microplate washer (Thermo Fisher Scientific); then 50 μl phage solution (in TBS-BSA-Tween, 0.1% v/v, 2 mM DDM) at determined phage concentration was added to the wells and incubated for 1 h at room temperature on a horizontal shaker. […]

SMILES	phage binding to KcsA-Kv1.1 T-only, in words
CC[C@H](C)[C@H](NC(=O)[C@H](CCC(=O)O)NC(=O)[C@@H](NC(=O)CN)C(C)C)C(=O)N[C@@H](CC(N)=O)C(=O)N[C@H](C(=O)N[C@@H](CCCCN)C(=O)N[C@H]1CSSC[C@@H]2NC(=O)[C@H](CCCCN)NC(=O)CNC(=O)[C@H](Cc3ccccc3)NC(=O)[C@H](CCCNC(=N)N)NC(=O)[C@H](CCSC)NC(=O)CNC(=O)[C@H](C)NC(=O)[C@H](CC(=O)O)NC(=O)[C@H](CCCCN)NC(=O)[C@@H]3CSSC[C@@H](C(=O)N[C@H](C(=O)N4CCC[C@H]4C(=O)N[C@@H](CCCCN)C(=O)O)[C@@H](C)O)NC(=O)[C@H](Cc4c[nH]cn4)NC(=O)[C@H](CSSC[C@H](NC(=O)[C@H](CCC(N)=O)NC(=O)[C@@H]4CCCN4C(=O)[C@H](CO)NC(=O)CNC(=O)[C@H](CO)NC1=O)C(=O)N[C@@H](CC(C)C)C(=O)N[C@@H](CCCCN)C(=O)N1CCC[C@H]1C(=O)N3)NC(=O)[C@H](CCCCN)NC(=O)[C@H](CCCNC(=N)N)NC(=O)[C@H](CC(N)=O)NC(=O)[C@H](CCSC)NC2=O)C(C)C [KTX1, Kaliotoxin-1]	ShK > KTX1
CC[C@H](C)[C@@H]1NC(=O)[C@@H]2CSSC[C@H](NC(=O)[C@H](CO)NC(=O)[C@@H](N)C(C)C)C(=O)N[C@@H]([C@@H](C)O)C(=O)NCC(=O)N[C@@H](CO)C(=O)N[C@@H](CCCCN)C(=O)N[C@@H](CC(=O)O)C(=O)N[C@@H](CSSC[C@@H](C(=O)N[C@@H](CCCCN)C(=O)N[C@H]3CSSC[C@@H](C(N)=O)NC(=O)CNC(=O)[C@H](Cc4ccc(O)cc4)NC3=O)NC(=O)[C@H](CO)NC(=O)[C@H](CCCCN)NC(=O)[C@H](CC(N)=O)NC1=O)C(=O)N[C@@H](Cc1ccc(O)cc1)C(=O)N[C@@H](C)C(=O)N1CCC[C@H]1C(=O)N[C@H]1CSSC[C@H](NC(=O)CNC(=O)[C@H]([C@@H](C)O)NC(=O)[C@H](CCC(N)=O)NC(=O)[C@H](CCCCN)NC(=O)[C@H](CCCNC(=N)N)NC1=O)C(=O)N1CCC[C@H]1C(=O)N[C@@H](CC(N)=O)C(=O)N[C@@H](C)C(=O)N[C@@H](CCCCN)C(=O)N2 [MTX, Maurotoxin] (HELM PEPTIDE1{V.S.C.T.G.S.K.D.C.Y.A.P.C.R.K.Q.T.G.C.P.N.A.K.C.I.N.K.S.C.K.C.Y.G.C.[am]}$PEPTIDE1,PEPTIDE1,3:R3-24:R3|PEPTIDE1,PEPTIDE1,9:R3-29:R3|PEPTIDE1,PEPTIDE1,13:R3-19:R3|PEPTIDE1,PEPTIDE1,31:R3-34:R3$$$V2.0; N-terminus and C-terminus assumed)	negligible binding
CC[C@H](C)[C@@H]1NC(=O)[C@@H](NC(=O)[C@H](CO)NC(=O)[C@@H](N)CCCNC(=N)N)CSSC[C@@H](C(=O)O)NC(=O)[C@H]([C@@H](C)O)NC(=O)CNC(=O)[C@@H]2CSSC[C@@H]3NC(=O)[C@H](CCC(N)=O)NC(=O)[C@H](Cc4ccccc4)NC(=O)[C@H](C)NC(=O)[C@H]([C@@H](C)O)NC(=O)[C@H](CSSC[C@H](NC(=O)[C@H](Cc4ccccc4)NC(=O)[C@H](CO)NC(=O)[C@H](CC(C)C)NC(=O)[C@H](CCCNC(=N)N)NC(=O)[C@H](Cc4ccc(O)cc4)NC(=O)[C@H](CCCCN)NC(=O)[C@H](CCSC)NC(=O)[C@H](CO)NC(=O)[C@H](Cc4c[nH]cn4)NC(=O)[C@H](CCCCN)NC3=O)C(=O)N[C@@H](CCCNC(=N)N)C(=O)N[C@@H](CCCCN)C(=O)N[C@@H]([C@@H](C)O)C(=O)N2)NC(=O)[C@H](CCCNC(=N)N)NC(=O)[C@H](CO)NC(=O)[C@H](CCCCN)NC(=O)[C@@H]2CCCN2C(=O)[C@H]([C@@H](C)CC)NC(=O)[C@H]([C@@H](C)O)NC(=O)[C@H](CC(=O)O)NC1=O [ShK, Stichodactyla toxin]	ShK > KTX1
